Measured values as given in article PMC12699471 (RSC Advances, 2025).
“Also recorded” adds a separate entry of the source.

Experiments:
Assay type in all cases: cell-based, human
MCF-7 cells [1] = assay: Microscopic analysis of cell morphology, MCF-7 cells; details: 48 h treatment; for cell morphology / cell death under the microscope: 10× magnification
MDA-MB-231 cells = assay: MTT cell viability assay, MDA-MB-231 cells; details: for cell survival: MDA-MB-231 cells, 100 µM, 48 h, MTT
MCF-7 cells [2] = assay: MTT cell viability assay, MCF-7 cells

| Structure (SMILES) | breast cancer cell inhibitory activity as concluded from microscopy (MCF-7 cells [1]) | cell morphology / cell death under the microscope (MCF-7 cells [1]) | IC50 (MDA-MB-231 cells; Homo sapiens, MDA-MB-231) [µM] | cell survival (MDA-MB-231 cells) [%] | IC50 (MCF-7 cells [2]; Homo sapiens, MCF7) [µM] | cell survival (MCF-7 cells [2]; MCF-7 cells, 100 µM, 48 h, MTT) [%] |
| --- | --- | --- | --- | --- | --- | --- |
| CCOC(=O)C1=C(COCc2cn(CCN3C(=O)C(=O)c4ccccc43)nn2)N=C2SC=CN2C1c1cccc(Cl)c1 (centres unmarked) [Compound 14a] | highest breast cancer cell inhibitory activity | mostly dead | 42.3 ± 0.83 | 58 | 81.9 ± 2.26 | ~52 |
| CCOC(=O)C1=C(COCc2cn(CCN3C(=O)C(=O)c4cc(Cl)ccc43)nn2)N=C2SC=CN2C1c1cccc(Cl)c1 (centres unmarked) [Compound 14c] | highest breast cancer cell inhibitory activity | significant changes in their morphology; also recorded: mostly dead | – | – | – | – |
| CCOC(=O)C1=C(COCc2cn(CCN3C(=O)C(=O)c4cc(F)ccc43)nn2)N=C2SC=CN2C1c1cccc(Cl)c1 (centres unmarked) [Compound 14d] | not showing breast cancer cell growth inhibition | significant changes in their morphology | – | – | – | – |
| CCOC(=O)C1=C(COCc2cn(C3OC(COC(C)=O)C(OC(C)=O)C(OC(C)=O)C3OC(C)=O)nn2)N=C2SC=CN2C1c1cccc(Cl)c1 (centres unmarked) [Compound 15] | highest breast cancer cell inhibitory activity | mostly dead | – | – | – | – |
| CC/C(=C(\c1ccccc1)c1ccc(OCCN(C)C)cc1)c1ccccc1 [Tamoxifen, tamoxifen, reference compound] | – | significant changes in their morphology; also recorded: mostly dead | – | 63 | – | – |
